In patent publication US5468760A, “Aralkyl-N-hydroxyureas as inhibitors of 5-lipoxygenase and oxidation of low density lipoprotein” (American Home Products Corporation, priority 1993, dated 1995):

Legend:
[1] = tested on: low density lipoprotein (LDL); assay: Inhibition of Copper Ion Mediated Oxidation of Low Density Lipoprotein; type: biochemical; conditions: Cu^+2 mediated oxidation of rabbit or monkey LDL; 37° C., 90 minutes; absorbance at 532 nm
Protocol: 5. Inhibition of Copper Ion Mediated Oxidation of Low Density Lipoprotein
In this in vitro assay, the inhibition of Cu^+2 mediated oxidation of rabbit or monkey LDL by an invention compound is determined spectrophotometricallly. Oxidation of LDL results in the formation of LDL-diene which absorbs light at 532 nm. Inhibition of oxidation of LDL leads to a decrease in absorbance at 532 nm.
Rabbit or monkey LDL is prepared according to the procedures of Havel, Eder and Gragdon, "The Distribution and Chemical Composition of Ultracentrifugally Separated Lipoproteins in Human Serum,: J. Clin. Invest. 34, 1345-1353 (1955) and Parhtasarathy, Wieland and Steriberg, "A Role for Endothelial Cell Lipoxygenase in the Oxidative Modification of Low Density Lipoprotein," Proc. Natl. Acad. Sci. USA 86, 1046-1050 (1989). Test compound solutions are prepared by dissolving the invention compounds in ethanol at concentrations up to 248 μM. The medium used is Dulbecco's phosphate buffered saline containing 0.5 mg/ml bovine serum albumin. For standards, 0 to 10 μl of an aqueous solution of 1,1,3,3-tetraethoxypropane (1 μmol/ml H2 O) in 4.1 ml of medium is used.
Test compound solution (100 μl) is added to 4 ml of medium in incubation tubes. To each tube is added 10 μl of LDL solution and 25 μl of aqueous copper sulfate solution (1.32 mg/ml H2 O). The tubes are incubated at 37° C. for 90 minutes and the oxidation reaction quenched by addition of 1 ml of thiobarbituric acid solution (0.67% in 50% acetic acid). The tubes are heated at 90° C. for 1 hour, then chilled in an ice bath and the chromophore extracted into 2 ml of n-butanol. Absorbence is read at 532 nm and the results are reported as nmols of malondialdehyde equivalents.
Significant differences (p<0.05) are determined by the Dunnett T-test or by the Student-Newman-Keuls Test for significant differences between means. The assay is conducted using several concentrations [I] of the inhibitor test compounds. […] The IC50 is determined by non-linear regression, plotting log [I] vs. % inhibition. […]

5-Lipoxygenase = biological target: T1, 5-Lipoxygenase (Homo sapiens, UniProt P09917); assay: Inhibition of 5-Lipoxygenase in Human Whole Blood (LTB4, calcium ionophore A23187); type: cell-based; conditions: 1 μM
T1 construct: endogenous in cells; host or cells: human whole blood from male donors (results expressed per 10^6 neutrophils)
T1 sequence (P09917 1-674): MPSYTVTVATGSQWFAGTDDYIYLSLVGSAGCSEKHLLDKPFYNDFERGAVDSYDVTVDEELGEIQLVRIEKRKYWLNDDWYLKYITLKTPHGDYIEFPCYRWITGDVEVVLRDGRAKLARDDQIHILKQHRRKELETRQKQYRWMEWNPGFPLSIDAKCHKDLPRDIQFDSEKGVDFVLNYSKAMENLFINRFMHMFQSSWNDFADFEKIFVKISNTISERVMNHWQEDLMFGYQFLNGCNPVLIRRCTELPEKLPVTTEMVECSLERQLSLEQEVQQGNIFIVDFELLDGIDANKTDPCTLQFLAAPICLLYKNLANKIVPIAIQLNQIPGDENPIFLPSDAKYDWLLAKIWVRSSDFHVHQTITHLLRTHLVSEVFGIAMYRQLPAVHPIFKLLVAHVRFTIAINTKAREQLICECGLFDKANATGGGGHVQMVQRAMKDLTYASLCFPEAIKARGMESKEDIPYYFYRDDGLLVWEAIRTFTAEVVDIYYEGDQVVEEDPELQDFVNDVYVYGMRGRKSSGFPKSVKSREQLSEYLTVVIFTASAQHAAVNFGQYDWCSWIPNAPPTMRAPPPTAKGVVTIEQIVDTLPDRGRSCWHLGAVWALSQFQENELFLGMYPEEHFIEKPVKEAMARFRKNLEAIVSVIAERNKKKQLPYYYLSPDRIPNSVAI
Protocol: 1. Inhibition of 5-Lipoxygenase in Human Whole Blood
Blood is obtained in 50-100 ml quantities from male donors. White blood cell counts and differentials are made. Two ml of blood are placed in a 15 ml polypropylene test tube. Test compounds are solubilized in dimethylsulfoxide and diluted in 1:10 in 10% bovine serum albumin in phosphate buffered saline, pH 7.4 resulting in a final dimethylsulfoxide concentration of 0.1% in the blood. Then, solutions of test compounds are added to the blood in a shaking water bath at 37° C. for 10 minutes prior to the addition of 30 μM calcium ionophore (A23 187, Sigma). After ionophore administration, whole blood samples are mixed and incubated for 20 minutes at 37° C. in a shaking water bath. Incubation is terminated by placing samples in an ice bath and immediately adding ethylene glycol-bis-(β-aminoethyl ether)-N,N,N',N'-tetraaceticacid (10 mM). Samples are mixed and centrifuged at 1200 x g for 15 minutes at 4° C. Preparation of samples for evaluation by RIA or ELISA is carried out by the following protocol. Plasma is removed from sample tubes, placed in 15 ml polypropylene test tubes containing 8 ml methanol, and then vortexed to precipitate protein. Samples are stored at -70° C. overnight. The next day, samples are centrifuged at 200 x g for 15 minutes at 4° C. to pellet the precipitate. Samples are dried in a Savant SpeedVac Concentrator, Model SVC 200H, reconstituted to original volume with ice cold RIA or ELISA buffer, and stored at -70° C. until assayed. The assay for eicosanoids (LTB4, TxB2, and PGE2) is performed as described by the manufacturer of the [^3 H]-RIA kit or ELISA kit (LTB4 -Amersham, TxB2 and PGE2 -Caymen Chemical).
The total eicosanoid level in 2 ml of blood is calculated and reported as ng/10^6 neutrophils. Significance is determined by a one-way analysis of variance with least significant difference (LSD) comparisons to control (p≤0.05) and IC50 's (μM) are determined by regression analysis (Finney, 1978). Drug effects are expressed as percent change from control values.

Row | SMILES | IC50 [1] [nM] | inhibition at 1 µM (5-Lipoxygenase) [%]
1 | Cc1oc(-c2ccccc2)nc1COc1cccc(CN(O)C(N)=O)c1 [Example 1, 1-Hydroxy-1-[3-(5-methyl-2-phenyl-oxazol-4-ylmethoxy)-benzyl]-urea] | 640 | 52
2 | NC(=O)N(O)Cc1cccc(OCc2csc(-c3ccccc3)n2)c1 [Example 5, 1-Hydroxy-1-[3-(2-phenyl-thiazol-4-ylmethoxy)-benzyl]-urea] |  | 66
3 | NC(=O)N(O)Cc1cccc(OCc2csc(-c3ccc(Cl)cc3)n2)c1 [Example 6, 1-Hydroxy-1-[3-[2-(4-chloro-phenyl)-thiazol-4-ylmethoxy]-benzyl]-urea] | 590 | 68
4 | Cc1oc(-c2ccc(F)cc2)nc1COc1cccc(CN(O)C(N)=O)c1 [Example 9, 1-[3-[2-(4-fluorophenyl)-5-methyl-oxazol-4-ylmethoxy]-benzyl]-1-hydroxy-urea] | 570 | 74
5 | Cc1oc(-c2ccccc2)nc1COc1cc(F)cc(CN(O)C(N)=O)c1 [Example 13, 1-[3-Fluoro-5-(5-methyl-2-phenyl-oxazol-4-ylmethoxy)-benzyl]-1-hydroxy-urea] |  | 70
